{
  "source": "patent US20090298820A1",
  "about": "“3-SUBSTITUTED-1H-PYRROLO[2,3-B]PYRIDINE AND 3-SUBSTITUTED-1H-PYRROLO[3,2-B]PYRIDINE COMPOUNDS, THEIR USE AS MTOR KINASE AND PI3 KINASE INHIBITORS, AND THEIR SYNTHESES” (Wyeth, priority 2008, published 2009)",
  "key": {"PI3Kα": {"target": "PI3Kα (Homo sapiens, UniProt P42336)", "sequence (P42336 whole entry, species assumed)": "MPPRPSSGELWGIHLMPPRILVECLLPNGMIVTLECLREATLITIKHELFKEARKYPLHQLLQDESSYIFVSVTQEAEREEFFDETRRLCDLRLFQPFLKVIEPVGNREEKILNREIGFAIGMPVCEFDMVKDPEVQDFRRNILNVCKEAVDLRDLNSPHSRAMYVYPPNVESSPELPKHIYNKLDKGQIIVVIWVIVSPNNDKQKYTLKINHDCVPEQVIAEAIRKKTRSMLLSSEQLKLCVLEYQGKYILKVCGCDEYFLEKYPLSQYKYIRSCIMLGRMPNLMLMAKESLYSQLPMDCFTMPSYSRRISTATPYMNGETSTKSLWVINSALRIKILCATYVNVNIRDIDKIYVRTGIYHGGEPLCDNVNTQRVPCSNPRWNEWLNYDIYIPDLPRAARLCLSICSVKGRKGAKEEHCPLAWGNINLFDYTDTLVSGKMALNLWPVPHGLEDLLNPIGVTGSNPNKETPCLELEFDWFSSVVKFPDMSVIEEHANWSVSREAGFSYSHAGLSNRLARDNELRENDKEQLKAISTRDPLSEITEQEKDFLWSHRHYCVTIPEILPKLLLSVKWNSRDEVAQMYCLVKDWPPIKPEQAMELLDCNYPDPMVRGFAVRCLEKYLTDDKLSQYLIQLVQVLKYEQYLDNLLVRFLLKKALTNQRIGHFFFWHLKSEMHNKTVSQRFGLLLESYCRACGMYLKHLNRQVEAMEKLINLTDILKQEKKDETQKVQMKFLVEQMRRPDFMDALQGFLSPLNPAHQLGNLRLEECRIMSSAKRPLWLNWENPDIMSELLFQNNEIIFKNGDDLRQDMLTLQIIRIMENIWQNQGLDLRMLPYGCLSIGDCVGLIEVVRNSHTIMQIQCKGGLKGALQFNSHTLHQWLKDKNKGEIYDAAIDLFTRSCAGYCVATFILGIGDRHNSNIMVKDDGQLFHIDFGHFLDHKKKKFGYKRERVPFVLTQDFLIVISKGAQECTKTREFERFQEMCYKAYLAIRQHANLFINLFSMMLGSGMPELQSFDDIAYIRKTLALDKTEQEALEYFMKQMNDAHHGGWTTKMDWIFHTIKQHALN", "sequence (P27986 whole entry partner, species assumed)": "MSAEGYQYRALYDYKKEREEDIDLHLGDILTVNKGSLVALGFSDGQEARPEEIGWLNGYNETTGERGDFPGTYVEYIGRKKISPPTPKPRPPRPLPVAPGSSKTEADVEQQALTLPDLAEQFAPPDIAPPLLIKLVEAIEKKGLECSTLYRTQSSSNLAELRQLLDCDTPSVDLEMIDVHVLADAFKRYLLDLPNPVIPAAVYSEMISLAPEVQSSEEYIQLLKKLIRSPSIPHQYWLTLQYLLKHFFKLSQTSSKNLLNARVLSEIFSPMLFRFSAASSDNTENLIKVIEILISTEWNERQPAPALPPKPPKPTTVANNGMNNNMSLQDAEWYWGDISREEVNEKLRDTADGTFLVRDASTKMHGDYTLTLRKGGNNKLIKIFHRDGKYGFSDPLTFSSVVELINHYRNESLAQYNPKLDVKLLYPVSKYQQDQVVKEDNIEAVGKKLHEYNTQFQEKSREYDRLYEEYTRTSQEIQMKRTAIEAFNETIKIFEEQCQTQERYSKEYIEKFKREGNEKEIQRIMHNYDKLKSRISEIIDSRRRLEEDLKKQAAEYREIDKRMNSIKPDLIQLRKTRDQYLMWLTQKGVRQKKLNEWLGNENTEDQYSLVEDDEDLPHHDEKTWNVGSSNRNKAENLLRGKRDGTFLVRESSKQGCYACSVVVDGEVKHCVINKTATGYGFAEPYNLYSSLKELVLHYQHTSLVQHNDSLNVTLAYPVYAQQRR", "assay": "PI3K-alpha fluorescence polarization assay", "assay_type": "biochemical", "details": "read-out: PI3Kα Median IC50"}, "PI3Kγ": {"target": "PI3Kγ (Homo sapiens, UniProt P48736)", "sequence (P48736 whole entry, species assumed)": "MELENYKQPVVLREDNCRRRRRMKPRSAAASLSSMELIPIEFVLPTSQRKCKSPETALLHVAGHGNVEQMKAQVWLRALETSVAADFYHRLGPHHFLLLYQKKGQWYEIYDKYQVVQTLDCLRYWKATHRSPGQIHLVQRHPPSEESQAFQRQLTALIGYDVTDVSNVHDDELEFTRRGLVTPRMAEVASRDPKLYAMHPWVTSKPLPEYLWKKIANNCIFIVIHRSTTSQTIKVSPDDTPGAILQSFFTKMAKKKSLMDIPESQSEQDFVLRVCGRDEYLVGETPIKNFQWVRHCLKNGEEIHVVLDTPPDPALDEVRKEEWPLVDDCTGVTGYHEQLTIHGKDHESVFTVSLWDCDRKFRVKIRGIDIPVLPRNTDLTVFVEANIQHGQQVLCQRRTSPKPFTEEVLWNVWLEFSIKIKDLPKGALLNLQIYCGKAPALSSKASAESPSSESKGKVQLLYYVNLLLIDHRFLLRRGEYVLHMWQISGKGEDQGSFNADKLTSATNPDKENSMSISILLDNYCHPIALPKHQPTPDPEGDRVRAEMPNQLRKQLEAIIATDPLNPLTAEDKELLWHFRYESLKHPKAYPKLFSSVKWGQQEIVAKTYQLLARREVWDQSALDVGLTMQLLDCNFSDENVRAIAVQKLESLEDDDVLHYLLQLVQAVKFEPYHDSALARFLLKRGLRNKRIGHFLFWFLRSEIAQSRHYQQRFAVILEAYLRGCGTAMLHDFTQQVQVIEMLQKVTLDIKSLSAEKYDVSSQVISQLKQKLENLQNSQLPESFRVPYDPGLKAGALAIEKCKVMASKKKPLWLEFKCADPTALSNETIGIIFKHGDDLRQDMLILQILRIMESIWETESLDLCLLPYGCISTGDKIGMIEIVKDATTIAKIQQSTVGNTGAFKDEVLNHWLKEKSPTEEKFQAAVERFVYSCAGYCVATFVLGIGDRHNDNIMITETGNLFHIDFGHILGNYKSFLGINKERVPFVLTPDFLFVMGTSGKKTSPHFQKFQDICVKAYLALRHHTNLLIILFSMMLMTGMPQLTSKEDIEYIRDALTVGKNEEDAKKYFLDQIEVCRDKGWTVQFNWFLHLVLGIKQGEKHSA", "assay": "PI3K-gamma fluorescence polarization assay", "assay_type": "biochemical", "details": "read-out: PI3Kγ Median IC50"}, "mTOR": {"target": "mTOR (Homo sapiens, UniProt P42345)", "assay": "mTOR enzyme assay (DELFIA format, His6-S6K substrate)", "assay_type": "biochemical", "details": "read-out: mTOR Kinase Median IC50"}},
  "note": "Where a name gives a salt, the structure may show the parent alone.",
  "data": [
    {"compound": "CCOC(=O)Nc1ccc2c(c1)C(=O)/C(=C/c1cn(C)c3nccc(N4CCC(C(=O)N(C)C)CC4)c13)O2", "note": "(as salt: Na) [Compound 171, ethyl[(2Z)-2-({4-[4-(dimethylcarbamoyl)piperidin-1-yl]-1-methyl-1H-pyrrolo[2,3-b]pyridin-3-yl}methylidene)-3-oxo-2,3-dihydro-1-benzofuran-5-yl]carbamate]", "values": [
      {"measurement": "melting point", "result": "162 to 167", "unit": "°C"}
    ]},
    {"compound": "Cn1cc(/C=C2\\Oc3cc(O)ccc3C2=O)c2c(-c3ccccc3)ccnc21", "note": "[Compound 30, (2Z)-6-hydroxy-2-[(1-methyl-4-phenyl-1H-pyrrolo[2,3-b]pyridin-3-yl)methylene]-1-benzofuran-3(2H)-one]", "values": [
      {"measurement": "IC50", "setting": "PI3Kα", "result": 219, "unit": "nM"},
      {"measurement": "IC50", "setting": "PI3Kγ", "result": 2380, "unit": "nM"},
      {"measurement": "IC50", "setting": "mTOR", "result": 19, "unit": "nM"},
      {"measurement": "melting point", "result": "314 to 316 °C (dec.)"}
    ]},
    {"compound": "Cn1cc(/C=C2\\Oc3cccc(O)c3C2=O)c2c(-c3ccccc3)ccnc21", "note": "[Compound 31, (2Z)-4-hydroxy-2-[(1-methyl-4-phenyl-1H-pyrrolo[2,3-b]pyridin-3-yl)methylene]-1-benzofuran-3(2H)-one]", "values": [
      {"measurement": "IC50", "setting": "PI3Kα", "result": 89, "unit": "nM"},
      {"measurement": "IC50", "setting": "PI3Kγ", "result": 187, "unit": "nM"},
      {"measurement": "IC50", "setting": "mTOR", "result": 3.5, "unit": "nM"},
      {"measurement": "melting point", "result": "274 to 275", "unit": "°C"}
    ]},
    {"compound": "Cn1cc(/C=C2\\Oc3cc(O)cc(F)c3C2=O)c2c(-c3ccccc3)ccnc21", "note": "[Compound 32, (2Z)-4-fluoro-6-hydroxy-2-[(1-methyl-4-phenyl-1H-pyrrolo[2,3-b]pyridin-3-yl)methylene]-1-benzofuran-3(2H)-one]", "values": [
      {"measurement": "IC50", "setting": "PI3Kα", "result": 98, "unit": "nM"},
      {"measurement": "IC50", "setting": "PI3Kγ", "result": 1050, "unit": "nM"},
      {"measurement": "IC50", "setting": "mTOR", "result": 46.5, "unit": "nM"},
      {"measurement": "melting point", "result": "325 to 327 °C (dec.)"}
    ]},
    {"compound": "Cn1cc(/C=C2\\Oc3ccc(Br)cc3C2=O)c2c(-c3ccccc3)ccnc21", "note": "[Compound 37, (2Z)-5-bromo-2-[(1-methyl-4-phenyl-1H-pyrrolo[2,3-b]pyridin-3-yl)methylene]-1-benzofuran-3(2H)-one]", "values": [
      {"measurement": "IC50", "setting": "PI3Kα", "result": 6860, "unit": "nM"},
      {"measurement": "IC50", "setting": "PI3Kγ", "result": 4000, "unit": "nM"},
      {"measurement": "IC50", "setting": "mTOR", "result": "> 4000", "unit": "nM"},
      {"measurement": "melting point", "result": "227 to 229", "unit": "°C"}
    ]},
    {"compound": "Cn1cc(/C=C2\\Oc3cc(O)cc(O)c3C2=O)c2c(-c3cncnc3)ccnc21", "note": "[Compound 62, (2Z)-4,6-dihydroxy-2-[(1-methyl-4-pyrimidin-5-yl-1H-pyrrolo[2,3-b]pyridin-3-yl)methylene]-1-benzofuran-3(2H)-one]", "values": [
      {"measurement": "IC50", "setting": "mTOR", "result": 4.3, "unit": "nM"},
      {"measurement": "melting point", "result": 340, "unit": "°C"}
    ]},
    {"compound": "CN1CC2CC1CN2c1ccnc2c1c(/C=C1\\Oc3cccc(O)c3C1=O)cn2C", "note": "(stereo not shown) [Compound 153, (2Z)-4-hydroxy-2-{[1-methyl-4-(5-methyl-2,5-diazabicyclo[2.2.1]hept-2-yl)-1H-pyrrolo[2,3-b]pyridin-3-yl]methylidene}-1-benzofuran-3(2H)-one]", "values": [
      {"measurement": "IC50", "setting": "PI3Kγ", "result": 148, "unit": "nM"},
      {"measurement": "IC50", "setting": "mTOR", "result": 16, "unit": "nM"},
      {"measurement": "melting point", "result": "220 °C (dec.)"}
    ]},
    {"compound": "CN(C)C(=O)C1CCN(c2ccnc3c2c(/C=C2\\Oc4ccc(NC(=O)C(F)(F)F)cc4C2=O)cn3C)CC1", "note": "[Compound 163, N,N-dimethyl-1-{1-methyl-3-[(Z)-{3-oxo-5-[(trifluoroacetyl)amino]-1-benzofuran-2(3H)-ylidene}methyl]-1H-pyrrolo[2,3-b]pyridin-4-yl}piperidine-4-carboxamide]", "values": [
      {"measurement": "IC50", "setting": "PI3Kα", "result": 5640, "unit": "nM"},
      {"measurement": "IC50", "setting": "PI3Kγ", "result": "> 10000", "unit": "nM"},
      {"measurement": "melting point", "result": "236 to 240", "unit": "°C"}
    ]},
    {"compound": "CN(C)C(=O)C1CCN(c2ccnc3c2c(/C=C2\\Oc4ccc(NC(=O)NC5CNC5)cc4C2=O)cn3C)CC1", "note": "[Compound 287, 1-{3-[(Z)-{5-[(azetidin-3-ylcarbamoyl)amino]-3-oxo-1-benzofuran-2(3H)-ylidene}methyl]-1-methyl-1H-pyrrolo[2,3-b]pyridin-4-yl}-N,N-dimethylpiperidine-4-carboxamide]", "values": [
      {"measurement": "IC50", "setting": "PI3Kα", "result": 68, "unit": "nM"},
      {"measurement": "IC50", "setting": "PI3Kγ", "result": 314, "unit": "nM"},
      {"measurement": "IC50", "setting": "mTOR", "result": 8.4, "unit": "nM"}
    ]},
    {"compound": "CC(C)NC(=O)Nc1ccc2c(c1)C(=O)/C(=C/c1cn(C)c3nccc(N4CCC(C(=O)N(C)C)CC4)c13)O2", "note": "[Compound 288, N,N-dimethyl-1-(1-methyl-3-{(Z)-[5-{[(1-methylethyl)carbamoyl]amino}-3-oxo-1-benzofuran-2(3H)-ylidene]methyl}-1H-pyrrolo[2,3-b]pyridin-4-yl)piperidine-4-carboxamide]", "values": [
      {"measurement": "IC50", "setting": "PI3Kα", "result": 1490, "unit": "nM"},
      {"measurement": "IC50", "setting": "PI3Kγ", "result": 3780, "unit": "nM"},
      {"measurement": "IC50", "setting": "mTOR", "result": 73, "unit": "nM"}
    ]},
    {"compound": "Cn1cc(/C=C2\\Oc3ccc(NC(=O)Nc4nc5ccccc5n4C)cc3C2=O)c2c(N3CC4CCC(C3)O4)ccnc21", "note": "[Compound 289, 1-(1-methyl-1H-benzimidazol-2-yl)-3-[(2Z)-2-{[1-methyl-4-(8-oxa-3-azabicyclo[3.2.1]oct-3-yl)-1H-pyrrolo[2,3-b]pyridin-3-yl]methylidene}-3-oxo-2,3-dihydro-1-benzofuran-5-yl]urea]", "values": [
      {"measurement": "IC50", "setting": "PI3Kα", "result": 5710, "unit": "nM"},
      {"measurement": "IC50", "setting": "PI3Kγ", "result": "> 10000", "unit": "nM"},
      {"measurement": "IC50", "setting": "mTOR", "result": 205, "unit": "nM"}
    ]},
    {"compound": "CN(C)C(=O)C1CCN(c2ccnc3c2c(/C=C2\\Oc4ccc(NC(=O)Nc5nc6ccccc6n5C)cc4C2=O)cn3C)CC1", "note": "[Compound 290, N,N-dimethyl-1-(1-methyl-3-{(Z)-[5-{[(1-methyl-1H-benzimidazol-2-yl)carbamoyl]amino}-3-oxo-1-benzofuran-2(3H)-ylidene]methyl}-1H-pyrrolo[2,3-b]pyridin-4-yl)piperidine-4-carboxamide]", "values": [
      {"measurement": "IC50", "setting": "PI3Kα", "result": 1250, "unit": "nM"},
      {"measurement": "IC50", "setting": "PI3Kγ", "result": "> 10000", "unit": "nM"},
      {"measurement": "IC50", "setting": "mTOR", "result": 150, "unit": "nM"}
    ]},
    {"compound": "CN(C)C(=O)C1CCN(c2ccnc3c2c(/C=C2\\Oc4ccc(NC(=O)NC5CC5)cc4C2=O)cn3C)CC1", "note": "[Compound 291, 1-{3-[(Z)-{5-[(cyclopropylcarbamoyl)amino]-3-oxo-1-benzofuran-2(3H)-ylidene}methyl]-1-methyl-1H-pyrrolo[2,3-b]pyridin-4-yl}-N,N-dimethylpiperidine-4-carboxamide]", "values": [
      {"measurement": "IC50", "setting": "PI3Kα", "result": 2550, "unit": "nM"},
      {"measurement": "IC50", "setting": "PI3Kγ", "result": 4680, "unit": "nM"},
      {"measurement": "IC50", "setting": "mTOR", "result": 59, "unit": "nM"}
    ]},
    {"compound": "Cn1cc(/C=C2\\Oc3ccc(NC(=O)Nc4cccnc4)cc3C2=O)c2c(C3=CCOCC3)ccnc21", "note": "[Compound 294, 1-[(2Z)-2-{[4-(3,6-dihydro-2H-pyran-4-yl)-1-methyl-1H-pyrrolo[2,3-b]pyridin-3-yl]methylidene}-3-oxo-2,3-dihydro-1-benzofuran-5-yl]-3-pyridin-3-ylurea]", "values": [
      {"measurement": "IC50", "setting": "PI3Kα", "result": 2080, "unit": "nM"},
      {"measurement": "IC50", "setting": "PI3Kγ", "result": "> 10000", "unit": "nM"},
      {"measurement": "IC50", "setting": "mTOR", "result": 27.5, "unit": "nM"}
    ]},
    {"compound": "Cn1cc(/C=C2\\Oc3ccc(NC(=O)Nc4ccc(F)nc4)cc3C2=O)c2c(N3CC4CCC(C3)O4)ccnc21", "note": "[Compound 298, 1-(6-fluoropyridin-3-yl)-3-[(2Z)-2-{[1-methyl-4-(8-oxa-3-azabicyclo[3.2.1]oct-3-yl)-1H-pyrrolo[2,3-b]pyridin-3-yl]methylidene}-3-oxo-2,3-dihydro-1-benzofuran-5-yl]urea]", "values": [
      {"measurement": "IC50", "setting": "PI3Kα", "result": 274, "unit": "nM"},
      {"measurement": "IC50", "setting": "PI3Kγ", "result": 2120, "unit": "nM"},
      {"measurement": "IC50", "setting": "mTOR", "result": 26, "unit": "nM"}
    ]},
    {"compound": "CN(C)C(=O)C1CCN(c2ccnc3c2c(/C=C2\\Oc4ccc(NC(=O)NC5CCN(C(=O)C(F)(F)F)CC5)cc4C2=O)cn3C)CC1", "note": "[Compound 300, N,N-dimethyl-1-(1-methyl-3-{(Z)-[3-oxo-5-({[1-(trifluoroacetyl)piperidin-4-yl]carbamoyl}amino)-1-benzofuran-2(3H)-ylidene]methyl}-1H-pyrrolo[2,3-b]pyridin-4-yl)piperidine-4-carboxamide]", "values": [
      {"measurement": "IC50", "setting": "PI3Kα", "result": 736, "unit": "nM"},
      {"measurement": "IC50", "setting": "PI3Kγ", "result": 3540, "unit": "nM"},
      {"measurement": "IC50", "setting": "mTOR", "result": 105, "unit": "nM"}
    ]},
    {"compound": "(2Z)-2-({4-[4-(5,6-dihydro-4H-1,3-oxazin-2-yl)phenyl]-1-methyl-1H-pyrrolo[2,3- b]pyridin-3-yl}methylidene)-4-hydroxy-1-benzofuran-3(2H)-one [Compound 22]", "values": [
      {"measurement": "IC50", "setting": "PI3Kα", "result": 109, "unit": "nM"},
      {"measurement": "IC50", "setting": "PI3Kγ", "result": 276, "unit": "nM"},
      {"measurement": "IC50", "setting": "mTOR", "result": 4.6, "unit": "nM"}
    ]},
    {"compound": "(2Z)-4-hydroxy-2-{[1-methyl-4-(1H-pyrrol-2-yl)-1H-pyrrolo[2,3-b]pyridin-3-yl]methylidene}-1-benzofuran-3(2H)-one [Compound 23]", "values": [
      {"measurement": "IC50", "setting": "PI3Kα", "result": 381, "unit": "nM"},
      {"measurement": "IC50", "setting": "PI3Kγ", "result": 2090, "unit": "nM"},
      {"measurement": "IC50", "setting": "mTOR", "result": 50.5, "unit": "nM"}
    ]}
  ]
}
